Source: patent US12522582B2 (Gilead Sciences, Inc., priority 2022, dated 2026)

Key:
[1] = test system: human cryopreserved hepatocytes; assay: Stability Assay in Cryopreserved Hepatocytes (human); assay type: in vitro ADME; settings: 1 μM, calculated from half-life using the well-stirred model
Protocol: Test compound was incubated at 1 μM with either rat or human cryopreserved hepatocytes (BioIVT, Westbury, NY) up to 6 hours at 37° C. in a 24-well plate format (1×10^6 cells/mL per well). At specified time points, samples were transferred to a 96-well plate and quenched with 2 volumes of a solution containing 90% acetonitrile 10% methanol 0.1% formic acid and internal standard. Sample plate was centrifuged at 3200 rpm for 15 min and supernatants transferred to a new plate containing half volume of water. The resulting solution was analyzed by LC-MS/MS. Data (analyte to internal standard peak area ratio) was plotted on a semi-log scale and fitted using an exponential fit. Assuming first order kinetics, the half-life (t1/2) and rate of metabolism were determined. Predicted hepatic clearance was calculated from the half-life using the well-stirred model.

HSV-2 virus (MS strain) [2] = assay: HSV-2 Cellomics Assay (immunofluorescence of HSV protein gD in infected ARPE-19 cells)
HSV-2 virus (MS strain) [3] = assay: HSV qPCR Assay (HSV replication in ARPE-19 cells)
[4] = MT-4 CC50 Assay (CellTiter Glo); assay type: cell-based; settings: human, MT-4 cells, luminescence, read-out: CC50-MT4
Protocol: Compounds were tested in 384-well plates: 18 compounds in duplex. Compounds were diluted in 7 points, 3-fold with DMSO by Bravo. Assay plate, which contains 20 uL medium with compounds, was seeded 2000 MT-4 cells in 20 uL/well by Multi-drop to start the assay. The plate was incubated at 37° C. for 5 days. On 6th day, the CellTiter Glo 40 uL was added in each well. Luminescence was read by Victor II.

[5] = Human alphaherpesvirus 2, ARPE-19, 16 h, read-out: EC50-HSV2-FBS
[6] = Human alphaherpesvirus 2, ARPE-19, 16 h, read-out: EC50-HSV2-10% Human Serum
[7] = Human alphaherpesvirus 2, ARPE-19, read-out: EC50-HSV2-qPCR
[8] = Human alphaherpesvirus 2, ARPE-19, read-out: EC50 in HSV qPCR assay

C[C@H]1Cc2ccc(S(N)(=O)=O)cc2N1C(=O)[C@@H]1Cc2ccc(-c3ccccn3)cc2C1 (single isomer, unassigned) [Example 16]
Predicted human hepatic clearance [1]: 2 mL/min/kg
EC50 (HSV-2 virus (MS strain) [2]; [5]): 775 nM

CC1Cc2ccc(S(N)(=O)=O)cc2N1C(=O)C1Cc2ccc(-c3ccccn3)cc2C1 (stereo not drawn) [Example 3]
EC50 (HSV-2 virus (MS strain) [2]; [6]): ≥ 25000 nM
EC50 (HSV-2 virus (MS strain) [2]; [5]): 129 nM
EC50 (HSV-2 virus (MS strain) [3]; [7]): 18.5 nM

C[C@H]1Cc2cc(F)c(S(N)(=O)=O)cc2N1C(=O)[C@@H]1Cc2ccc(-c3ccccn3)cc2C1 [Example 34]
Predicted human hepatic clearance [1]: 3.33 mL/min/kg
EC50 (HSV-2 virus (MS strain) [2]; [6]): 1570 nM
EC50 (HSV-2 virus (MS strain) [2]; [5]): 158 nM

C[C@@H]1Cc2cc(F)c(S(N)(=O)=O)cc2N1C(=O)[C@@H]1Cc2ccc(-c3cc(F)cc(F)c3F)cc2C1 [Example 62, (R)-5-fluoro-2-methyl-1-((R)-5-(2,3,5-trifluorophenyl)-2,3-dihydro-1H-indene-2-carbonyl)indoline-6-sulfonamide]
EC50 (HSV-2 virus (MS strain) [2]; [6]): 318 nM
EC50 (HSV-2 virus (MS strain) [2]; [5]): 59 nM
CC50 at 5 days [4]: ≥ 10000 nM

Cc1cc2c(cc1S(N)(=O)=O)N(C(=O)[C@@H]1Cc3ccc(-c4ccccn4)cc3C1)[C@H](C)C2 [Example 63, (R)-2,5-dimethyl-1-((R)-5-(pyridin-2-yl)-2,3-dihydro-1H-indene-2-carbonyl)indoline-6-sulfonamide]
EC50 (HSV-2 virus (MS strain) [2]; [6]): 912 nM
EC50 (HSV-2 virus (MS strain) [2]; [5]): 25 nM
CC50 at 5 days [4]: ≥ 10000 nM

NS(=O)(=O)c1ccc2c(c1)N(C(=O)[C@@H]1Cc3ccc(-c4ccccn4)cc3C1)CC21CC1 [Example 64, (R)-1′-(5-(pyridin-2-yl)-2,3-dihydro-1H-indene-2-carbonyl)spiro[cyclopropane-1,3′-indoline]-6′-sulfonamide]
EC50 (HSV-2 virus (MS strain) [2]; [6]): ≥ 10000 nM
EC50 (HSV-2 virus (MS strain) [2]; [5]): 115 nM
CC50 at 5 days [4]: ≥ 10000 nM

CC[C@@H]1Cc2ccc(S(N)(=O)=O)cc2N1C(=O)[C@@H]1Cc2ccc(-c3ccccn3)cc2C1 [Example 68, (R)-2-ethyl-1-((R)-5-(pyridin-2-yl)-2,3-dihydro-1H-indene-2-carbonyl)indoline-6-sulfonamide]
EC50 (HSV-2 virus (MS strain) [2]; [6]): 233 nM
EC50 (HSV-2 virus (MS strain) [2]; [5]): 31 nM
CC50 at 5 days [4]: ≥ 10000 nM

NS(=O)(=O)c1ccc2c(c1)N(C(=O)C1Cc3ccc(-c4ccccc4F)cc3C1)CC2 (stereo not drawn) [Example 70, 1-(5-(2-fluorophenyl)-2,3-dihydro-1H-indene-2-carbonyl) indoline-6-sulfonamide]
EC50 (HSV-2 virus (MS strain) [2]; [6]): ≥ 25000 nM
EC50 (HSV-2 virus (MS strain) [2]; [5]): 91 nM
EC50 (HSV-2 virus (MS strain) [3]; [7]): 25.8 nM

NS(=O)(=O)c1ccc2c(c1)N(C(=O)C1Cc3ccc(-n4cccn4)cc3C1)CC2 (stereo not drawn) [Example 78, 1-(5-(1H-pyrazol-1-yl)-2,3-dihydro-1H-indene-2-carbonyl)indoline-6-sulfonamide]
EC50 (HSV-2 virus (MS strain) [2]; [6]): 20700 nM
EC50 (HSV-2 virus (MS strain) [2]; [5]): 65 nM
CC50 at 5 days [4]: ≥ 50000 nM

NS(=O)(=O)c1ccc2c(c1)N(C(=O)[C@@H]1Cc3ccc(-c4cccc(F)n4)cc3C1)CC2 [Example 85, (R)-1-(5-(6-fluoropyridin-2-yl)-2,3-dihydro-1H-indene-2-carbonyl)indoline-6-sulfonamide]
EC50 (HSV-2 virus (MS strain) [2]; [6]): 7500 nM
EC50 (HSV-2 virus (MS strain) [2]; [5]): 8.9 nM
CC50 at 5 days [4]: 330 nM

NS(=O)(=O)c1ccc2c(c1)N(C(=O)[C@H]1Cc3ccc(-c4cnccn4)cc3C1)CC2 [Example 86, (S)-1-(5-(pyrazin-2-yl)-2,3-dihydro-1H-indene-2-carbonyl)indoline-6-sulfonamide]
EC50 (HSV-2 virus (MS strain) [2]; [5]): 455 nM
CC50 at 5 days [4]: 28500 nM

NS(=O)(=O)c1ccc2c(c1)N(C(=O)[C@H]1Cc3ccc(-c4ncccc4F)cc3C1)CC2 [Example 88, (S)-1-(5-(3-fluoropyridin-2-yl)-2,3-dihydro-1H-indene-2-carbonyl)indoline-6-sulfonamide]
EC50 (HSV-2 virus (MS strain) [2]; [5]): 535 nM
CC50 at 5 days [4]: 1800 nM

Cc1cccc(-c2ccc3c(c2)C[C@H](C(=O)N2CCc4ccc(S(N)(=O)=O)cc42)C3)n1 [Example 90, (R)-1-(5-(6-methylpyridin-2-yl)-2,3-dihydro-1H-indene-2-carbonyl)indoline-6-sulfonamide]
EC50 (HSV-2 virus (MS strain) [2]; [6]): 14600 nM
EC50 (HSV-2 virus (MS strain) [2]; [5]): 23 nM
CC50 at 5 days [4]: 36900 nM

NS(=O)(=O)c1ccc2c(c1)N(C(=O)[C@@H]1Cc3ccc(-n4cccn4)cc3C1)CC2 [Example 91, (R)-1-(5-(1H-pyrazol-1-yl)-2,3-dihydro-1H-indene-2-carbonyl)indoline-6-sulfonamide]
EC50 (HSV-2 virus (MS strain) [2]; [6]): 11600 nM
EC50 (HSV-2 virus (MS strain) [2]; [5]): 40 nM
CC50 at 5 days [4]: ≥ 50000 nM

CC1c2ccc(-c3ccccn3)cc2CC1C(=O)N1CCc2cc(F)c(S(N)(=O)=O)cc21 (stereo not drawn) [Example 96, 5-fluoro-1-(1-methyl-5-(pyridin-2-yl)-2,3-dihydro-1H-indene-2-carbonyl) indoline-6-sulfonamide]
EC50 (HSV-2 virus (MS strain) [2]; [6]): 85 nM
EC50 (HSV-2 virus (MS strain) [2]; [5]): 24 nM
CC50 at 5 days [4]: 12900 nM

Cc1cccc(-c2ccc3c(c2)CC(C(=O)N2CCc4cc(F)c(S(N)(=O)=O)cc42)C3C)n1 (stereo not drawn) [Example 99, 5-fluoro-1-(1-methyl-5-(6-methylpyridin-2-yl)-2,3-dihydro-1H-indene-2-carbonyl) indoline-6-sulfonamide]
EC50 (HSV-2 virus (MS strain) [2]; [6]): 396 nM
EC50 (HSV-2 virus (MS strain) [2]; [5]): 63 nM
CC50 at 5 days [4]: ≥ 10000 nM

CC1c2ccc(-n3cccn3)cc2CC1C(=O)N1CCc2cc(F)c(S(N)(=O)=O)cc21 (stereo not drawn) [Example 100]
EC50 (HSV-2 virus (MS strain) [2]; [6]): 107 nM
EC50 (HSV-2 virus (MS strain) [2]; [5]): 34 nM
CC50 at 5 days [4]: 5430 nM

C[C@H]1CN(C(=O)[C@H]2Cc3cc(-c4ccccn4)ccc3[C@@H]2C)c2cc(S(N)(=O)=O)c(F)cc21 [Example 104, (R)-5-fluoro-3-methyl-1-((1R,2S)-1-methyl-5-(pyridin-2-yl)-2,3-dihydro-1H-indene-2-carbonyl)indoline-6-sulfonamide]
EC50 (HSV-2 virus (MS strain) [2]; [6]): 64.4 nM
EC50 (HSV-2 virus (MS strain) [2]; [5]): 20 nM
CC50 at 5 days [4]: ≥ 10000 nM

CC1CN(C(=O)C2Cc3ccc(-c4ccccn4)cc3C2)c2cc(S(N)(=O)=O)ccc21 (stereo not drawn) [Example 106, 3-Methyl-1-[5-(2-pyridyl)indane-2-carbonyl]indoline-6-sulfonamide]
EC50 (HSV-2 virus (MS strain) [2]; [5]): 81 nM
EC50 (HSV-2 virus (MS strain) [3]; [7]): 10.9 nM

CC[C@@H]1Cc2cc(F)c(S(N)(=O)=O)cc2N1C(=O)[C@@H]1Cc2ccc(-c3ccccn3)cc2C1 [Example 113]
EC50 (HSV-2 virus (MS strain) [2]; [6]): 168 nM
EC50 (HSV-2 virus (MS strain) [2]; [5]): 19 nM
CC50 at 5 days [4]: ≥ 10000 nM

NS(=O)(=O)c1cc2c(cc1F)CCN2C(=O)C1Cc2ccc(-c3ccccn3)cc2O1 (stereo not drawn) [Example 116, 5-fluoro-1-(6-(pyridin-2-yl)-2,3-dihydrobenzofuran-2-carbonyl)indoline-6-sulfonamide]
Predicted human hepatic clearance [1]: 0.83 mL/min/kg
EC50 (HSV-2 virus (MS strain) [2]; [6]): 489 nM
EC50 (HSV-2 virus (MS strain) [2]; [5]): 42 nM

C[C@@H]1Cc2ccc(S(N)(=O)=O)cc2N1C(=O)[C@H]1Cc2cc(-c3cc(F)ccc3F)ccc2O1 [Example 123, (R)-1-((R)-5-(2,5-difluorophenyl)-2,3-dihydrobenzofuran-2-carbonyl)-2-methylindoline-6-sulfonamide]
EC50 (HSV-2 virus (MS strain) [2]; [6]): 291 nM
EC50 (HSV-2 virus (MS strain) [2]; [5]): 46 nM
CC50 at 5 days [4]: ≥ 10000 nM

NS(=O)(=O)c1ccc2c(c1)N(C(=O)[C@@H]1Cc3ccc(-c4ccncn4)cc3C1)CC2 [Example 129, (R)-1-(5-(pyrimidin-4-yl)-2,3-dihydro-1H-indene-2-carbonyl)indoline-6-sulfonamide]
Predicted human hepatic clearance [1]: 17.5 mL/min/kg
EC50 (HSV-2 virus (MS strain) [2]; [6]): 7610 nM
EC50 (HSV-2 virus (MS strain) [2]; [5]): 231 nM

NS(=O)(=O)c1ccc2c(c1)N(C(=O)[C@@H]1Cc3ccc(-c4cccnc4)cc3C1)CC2 [Example 130, (R)-1-(5-(pyridin-3-yl)-2,3-dihydro-1H-indene-2-carbonyl)indoline-6-sulfonamide]
Predicted human hepatic clearance [1]: 7.5 mL/min/kg
EC50 (HSV-2 virus (MS strain) [2]; [6]): ≥ 10000 nM
EC50 (HSV-2 virus (MS strain) [2]; [5]): 110 nM

Nc1nc2c(ncn2COCCO)c(=O)[nH]1 [acyclovir, reference compound]
EC50 (HSV-2 virus (MS strain) [3]; [8]): 1250 nM

Cc1cccc(C)c1N(CC(=O)Nc1ccc(-c2ncon2)cc1)C(=O)C1CCS(=O)(=O)CC1 [amenamevir, reference compound]
EC50 (HSV-2 virus (MS strain) [3]; [8]): 14 nM

Cc1nc(N(C)C(=O)Cc2ccc(-c3ccccn3)cc2)sc1S(N)(=O)=O [pritelivir, reference compound]
EC50 (HSV-2 virus (MS strain) [2]; Human alphaherpesvirus 2, ARPE-19, read-out: EC50 in HSV-2 Cellomics assay): 150 nM
EC50 (HSV-2 virus (MS strain) [3]; [8]): 14 nM
